ChEMBL document CHEMBL5512660, “Synthesis of LAVR-289, a new [(Z)-3-(acetoxymethyl)-4-(2,4-diaminopyrimidin-6-yl)oxy-but-2-enyl]phosphonic acid prodrug with pronounced antiviral activity against DNA viruses” (Eur J Med Chem, 2024)

What was measured:
[1] = tested on: Human alphaherpesvirus 3; test: Antiviral activity against thymidine-kinase expressing Varicella zoster virus wild type strain YS infected in human HEL cells assessed as reduction in plaque formation measured after 3 days; type: functional, organism-based; conditions: Human alphaherpesvirus 3, YS, 72 h
[2] = tested on: Human alphaherpesvirus 3; test: Antiviral activity against thymidine-kinase expressing Varicella zoster virus wild type strain OKA infected in human HEL cells assessed as reduction in plaque formation measured after 3 days; type: functional, organism-based; conditions: Human alphaherpesvirus 3, OKA, 72 h
[3] = tested on: Human alphaherpesvirus 3; test: Antiviral activity against thymidine-kinase deficient acyclovir-resistant Varicella zoster virus strain 07/1 infected in human HEL cells assessed as reduction in plaque formation measured after 3 days; type: functional, organism-based; conditions: Human alphaherpesvirus 3, 07/1, HEL, 72 h
[4] = tested on: Human alphaherpesvirus 3; test: Antiviral activity against thymidine-kinase deficient acyclovir-resistant Varicella zoster virus strain YS/R infected in human HEL cells assessed as reduction in plaque formation measured after 3 days; type: functional, organism-based; conditions: Human alphaherpesvirus 3, YS/R, 72 h
[5] = tested on: Cytomegalovirus; test: Antiviral activity against human cytomegalovirus strain AD-169 infected in human HEL cells assessed as reduction in virus-induced cytopathic effect measured after 3 days; type: functional, organism-based; conditions: Human betaherpesvirus 5, AD-169, HEL, 72 h
[6] = tested on: Cytomegalovirus; test: Antiviral activity against human cytomegalovirus strain Davis infected in human HEL cells assessed as reduction in virus-induced cytopathic effect measured after 3 days; type: functional, organism-based; conditions: Human betaherpesvirus 5, Davis, 72 h
[7] = Cytotoxicity against human HEL cells assessed as microscopically detectable alterations in cell morphology measured after 24 hrs; type: toxicity, cell-based; conditions: read-out: MCC50
[8] = Cytostatic activity against human HEL cells assessed as reduction in cell growth measured after 24 hrs; type: toxicity, cell-based
[9] = tested on: Human alphaherpesvirus 1; test: Antiviral activity against thymidine-kinase expressing human herpes virus type 1 KOS infected in human HEL cells assessed as reduction in plaque formation measured after 3 days; type: functional, organism-based; conditions: Human alphaherpesvirus 1, KOS, 72 h
[10] = tested on: Human alphaherpesvirus 1; test: Antiviral activity against thymidine-kinase deficient acyclovir-resistant human herpes virus type 1 infected in human HEL cells assessed as reduction in plaque formation measured after 3 days; type: functional, organism-based; conditions: Human alphaherpesvirus 1, HEL, 72 h
[11] = tested on: Human alphaherpesvirus 2; test: Antiviral activity against human herpes virus type 2 strain 07/1 infected in human HEL cells assessed as reduction in plaque formation measured after 3 days; type: functional, organism-based; conditions: Human alphaherpesvirus 2, 07/1, HEL, 72 h
[12] = tested on: Vaccinia virus; test: Antiviral activity against Vaccinia virus […] infected in human HEL cells assessed as reduction in plaque formation measured after 3 days; type: functional, organism-based; conditions: Orthopoxvirus vaccinia, 72 h
[13] = Selectivity index, ratio of CC50 for human HEL cells to EC50 for thymidine-kinase deficient acyclovir-resistant Varicella zoster virus; type: toxicity; conditions: read-out: Selectivity Index
[14] = Selectivity index, ratio of CC50 for human HEL cells to EC50 for thymidine-kinase deficient acyclovir-resistant human herpes virus type 1; type: toxicity; conditions: read-out: Selectivity Index
[15] = Selectivity index, ratio of CC50 for human HEL cells to EC50 for Vaccinia virus […]; type: toxicity; conditions: read-out: Selectivity Index

CC(C)(C)C(=O)OCOP(=O)(C/C=C/COc1cc(N)nc(N)n1)OCOC(=O)C(C)(C)C
EC50 [1]: 2.4 µM | EC50 [2]: 0.8 µM | EC50 [3]: 1.4 µM | EC50 [4]: 1.7 µM | EC50 [5]: 44.7 µM | EC50 [6]: 44.7 µM | MCC at 24 h [7]: > 100 µM | CC50 at 24 h [8]: 5.1 µM | EC50 [9]: 13.4 µM | EC50 [10]: 13.4 µM | EC50 [11]: 13.4 µM | EC50 [12]: 32.5 µM

CC(=O)OCC(=CCP(=O)(OCOC(=O)C(C)(C)C)OCOC(=O)C(C)(C)C)COc1cc(N)nc(N)n1
EC50 [1]: 0.36 µM | EC50 [2]: 0.14 µM | EC50 [3]: 0.12 µM | EC50 [4]: 0.18 µM | EC50 [5]: 8.56 µM | EC50 [6]: 4.06 µM | MCC at 24 h [7]: 100 µM | CC50 at 24 h [8]: 2.03 µM | EC50 [9]: 0.6 µM | EC50 [10]: 0.6 µM | EC50 [11]: 1.1 µM | EC50 [12]: 2.9 µM

CC(C)OC(=O)OCOP(=O)(C/C=C/COc1cc(N)nc(N)n1)OCOC(=O)OC(C)C
EC50 [2]: 0.86 µM | EC50 [3]: 1.25 µM | EC50 [5]: 44.7 µM | EC50 [6]: 36.6 µM | MCC at 24 h [7]: > 100 µM | CC50 at 24 h [8]: > 100 µM | EC50 [9]: 3.75 µM | EC50 [10]: 5.75 µM | EC50 [11]: 1.8 µM

CCCCCCCCCCCCCCCCOCCCOP(=O)(C/C=C(\COC(C)=O)COc1cc(N)nc(N)n1)OCOC(=O)OC(C)C (configuration not stated)
EC50 [2]: 0.004 µM | EC50 [3]: 0.018 µM | EC50 [5]: 0.021 µM | MCC at 24 h [7]: 100 µM | CC50 at 24 h [8]: 2.32 µM | EC50 [9]: 0.43 µM | EC50 [10]: 0.009 µM | EC50 [11]: 0.015 µM | EC50 [12]: 0.05 µM | selectivity ratio [13]: 129 | selectivity ratio [14]: 273 | selectivity ratio [15]: 46

CCCCCCCCCCCCCCCCOCCCOP(=O)(C/C=C/COc1cc(N)nc(N)n1)OCOC(=O)OC(C)C (configuration not stated)
EC50 [2]: 0.18 µM | EC50 [3]: 0.24 µM | EC50 [5]: 7.08 µM | EC50 [6]: 7.26 µM | MCC at 24 h [7]: 100 µM | CC50 at 24 h [8]: 14.5 µM | EC50 [9]: 39 µM | EC50 [10]: 42 µM | EC50 [11]: 39 µM

CC(=O)OC/C(=C\CP(=O)(OCOC(=O)OC(C)C)OCOC(=O)OC(C)C)COc1cc(N)nc(N)n1
EC50 [2]: 0.09 µM | EC50 [3]: 0.22 µM | MCC at 24 h [7]: > 100 µM | CC50 at 24 h [8]: 15.4 µM | EC50 [9]: 0.6 µM | EC50 [10]: 0.4 µM | EC50 [11]: 0.35 µM | EC50 [12]: 4.1 µM

Nc1nc2c(ncn2COCCO)c(=O)[nH]1 [ACYCLOVIR]
EC50 [4]: 66 µM | MCC at 24 h [7]: > 300 µM | CC50 at 24 h [8]: 470 µM | EC50 [12]: > 250 µM

O=c1[nH]c(=O)n([C@H]2C[C@H](O)[C@@H](CO)O2)cc1/C=C/Br [BRIVUDINE]
EC50 [2]: 0.009 µM | EC50 [4]: 85 µM | MCC at 24 h [7]: > 150 µM | CC50 at 24 h [8]: > 150 µM | EC50 [12]: 5.8 µM

Nc1ccn(C[C@@H](CO)OCP(=O)(O)O)c(=O)n1 [CIDOFOVIR ANHYDROUS]
EC50 [5]: 0.73 µM | MCC at 24 h [7]: > 350 µM | CC50 at 24 h [8]: 64 µM | EC50 [10]: 3.8 µM | EC50 [12]: 29 µM | selectivity ratio [15]: 2

Nc1nc2c(ncn2COC(CO)CO)c(=O)[nH]1 [GANCICLOVIR]
EC50 [5]: 7.5 µM | MCC at 24 h [7]: > 350 µM | CC50 at 24 h [8]: 130 µM | EC50 [11]: 0.06 µM | EC50 [12]: > 100 µM
